Among the test systems are COLO 205 colon; OVCAR-8 ovarian; CAKI-1 renal; HT29 colon; A498 renal; NCI-H23 lung; UO-31 renal; SK-MEL-5 melanoma; M14 melanoma; SNB-19 CNS; UACC-257 melanoma.
What all share (assay): NCI tumour cell line growth inhibition, 48 h

Each structure is given as a SMILES string. Values joined by “and” are separate entries in the source; they are usually repeats but may differ in a detail not shown here. Equal entries are not always repeated.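 Interpolation was linear, between the two tested concentrations surrounding the appropriate level; five concentrations were tested over 48 hours in 96-well plates. TGI denotes the concentration required for complete inhibition of growth.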 Peptide text beside a SMILES is read from it. * marks the point of attachment. X34 = O=C(c1ccc(-c2ccc(Cl)cc2Cl)o1)*

On to `COc1cc(NC(C)=O)ccc1C(=O)N/N=C/c1ccco1`, for which the TGI in the test on COLO 205 colon, in the test on OVCAR-8 ovarian, in the test with CAKI-1 renal, with HT29 colon, with A498 renal and in the test on NCI-H23 lung was above 100 µM throughout. The TGI in the test with UO-31 renal, in the test with SK-MEL-5 melanoma, in the test on M14 melanoma and in the test with SNB-19 CNS was above 100 µM in each case.
`CCOc1ccccc1Nc1ccc(N)cc1S(=O)(=O)O`: the TGI in the test on CAKI-1 renal, with HT29 colon, with UACC-257 melanoma, with A498 renal, in the test on NCI-H23 lung and in the test on UO-31 renal was above 100 µM throughout. For the same molecule, the TGI in the test with SK-MEL-5 melanoma, in the test on M14 melanoma and in the test on SNB-19 CNS was above 100 µM each time.
Consider `COc1ccc(C(=O)CCN(C)C)c2ccccc12`, for which the TGI is 36.6 µM in the test on COLO 205 colon; 40.5 µM in the test with OVCAR-8 ovarian; 17.4 µM in the test with CAKI-1 renal; 66.7 µM in the test with HT29 colon; above 58.7 µM in the test with UACC-257 melanoma; above 88.8 µM with A498 renal. Also, the TGI is 51.4 µM in the test with NCI-H23 lung; 44.2 µM in the test with UO-31 renal; above 100 µM in the test on SK-MEL-5 melanoma; 98.3 µM in the test with M14 melanoma; above 100 µM in the test with SNB-19 CNS.
Take `CC[C@@]1(O)C[C@H](OC2CC(N(C)C)C(OC3CC(O)C(OC4CCC(=O)C(C)O4)C(C)O3)C(C)O2)c2c(cc3c(c2O)C(=O)c2c(O)cccc2C3=O)C1C(=O)OC` (some centres not stated): the TGI was 0.679 µM and 4.49 µM in the test on OVCAR-8 ovarian; 4.09 µM in the test with CAKI-1 renal; 1.42 µM in the test with HT29 colon; 0.202 µM and 0.993 µM in the test on UACC-257 melanoma; 0.213 µM in the test on A498 renal; 0.635 µM in the test with NCI-H23 lung. In addition, the TGI in the test on SK-MEL-5 melanoma was 0.189 µM and 0.478 µM; in the test on M14 melanoma, 0.237 µM and 0.769 µM.
As to `CC1=C(SCCO)C(=O)c2ccccc2C1=O`, the TGI in the test on COLO 205 colon turned out to be 24.1 µM; in the test with OVCAR-8 ovarian it was 28.6 µM; with CAKI-1 renal, 28.8 µM; in the test with HT29 colon, 38.7 µM; in the test with UACC-257 melanoma, 25.8 µM; in the test on A498 renal it was 30.6 µM. Besides, the TGI was determined as 30.4 µM in the test with NCI-H23 lung; 20.3 µM with UO-31 renal; 26.6 µM with SK-MEL-5 melanoma; 27.6 µM with M14 melanoma; 79.6 µM in the test on SNB-19 CNS.
For `CC(=O)OC12CC[N+]3(C)CCCCC3C1=Nc1ccccc12` (configuration not stated), the TGI in the test with COLO 205 colon, in the test on OVCAR-8 ovarian, in the test on CAKI-1 renal, in the test on HT29 colon, in the test with UACC-257 melanoma and with A498 renal was above 100 µM throughout. For the same molecule, the TGI with NCI-H23 lung, in the test with UO-31 renal, in the test on SK-MEL-5 melanoma, with M14 melanoma and with SNB-19 CNS was above 100 µM in each case.
For the molecule `[C-]#[N+]C(=C\c1ccc(O)cc1)/C(=C/c1ccc(O)cc1)[N+]#[C-]`, the TGI with COLO 205 colon is 56.6 µM; in the test on OVCAR-8 ovarian it was above 20.5 µM; with CAKI-1 renal it was 5.63 µM; with HT29 colon it was above 73.8 µM; in the test with UACC-257 melanoma, 6.98 µM; with A498 renal it was above 24.8 µM. Further, the TGI with NCI-H23 lung is 5.93 µM; in the test with SK-MEL-5 melanoma, 5.36 µM; in the test on M14 melanoma, above 20.4 µM; with SNB-19 CNS, above 100 µM.
`O=C1CCCCN1`: the TGI in the test with COLO 205 colon is above 1120 µM; in the test with OVCAR-8 ovarian, above 1120 µM; in the test on CAKI-1 renal it was above 1120 µM; in the test on HT29 colon, above 1120 µM; with UACC-257 melanoma it was above 1120 µM; with A498 renal, above 52 µM. For the same molecule, the TGI with NCI-H23 lung, with UO-31 renal, in the test on SK-MEL-5 melanoma and in the test with SNB-19 CNS was above 1120 µM each time.
For the molecule `COc1nc2ccc(CNc3ccc(C(=O)NC(CCC(=O)O)C(=O)O)cc3)cc2nc1OC` (configuration not stated), the TGI with COLO 205 colon, with OVCAR-8 ovarian, with HT29 colon, in the test on UACC-257 melanoma, in the test with A498 renal and with NCI-H23 lung was above 100 µM throughout. Moreover, the TGI in the test with UO-31 renal, in the test on SK-MEL-5 melanoma, in the test on M14 melanoma and in the test on SNB-19 CNS was above 100 µM each time.
Turning to `CCCCC(=O)c1c(O)ccc2c(C)cc(=O)oc12`, the TGI with COLO 205 colon, in the test with OVCAR-8 ovarian, in the test with CAKI-1 renal, with HT29 colon, in the test on UACC-257 melanoma and in the test with A498 renal was above 100 µM in each case. The TGI with NCI-H23 lung, with UO-31 renal, with SK-MEL-5 melanoma, in the test on M14 melanoma and in the test with SNB-19 CNS was above 100 µM in each case.
With `COC(=O)C(CC(C)C)NC(=O)C(Cc1ccccc1)NC(=O)C1CCCN1C(=O)C(CO)NC(=O)c1ccc(-c2ccc(Cl)cc2Cl)o1` (configuration not stated) (X34-SPFL-OMe; configuration not given here), the TGI in the test with COLO 205 colon was 30.8 µM; in the test with OVCAR-8 ovarian, above 100 µM; in the test with CAKI-1 renal, above 100 µM; in the test on HT29 colon, 40.7 µM; with UACC-257 melanoma it was 57.8 µM; in the test with A498 renal it was 76.5 µM. The TGI with NCI-H23 lung was 97.6 µM; in the test on UO-31 renal, 65.2 µM; in the test with SK-MEL-5 melanoma, 35.2 µM; in the test on M14 melanoma it was 49 µM; with SNB-19 CNS, above 100 µM.
Take `O=S(=O)(O)c1cc(S(=O)(=O)O)c2c(N=Nc3ccc(S(=O)(=O)O)c4ccccc34)c(O)ccc2c1`: the TGI with COLO 205 colon, in the test on OVCAR-8 ovarian, in the test with CAKI-1 renal, in the test on HT29 colon, with UACC-257 melanoma and in the test with NCI-H23 lung was above 100 µM throughout. Besides, the TGI in the test with UO-31 renal, in the test with SK-MEL-5 melanoma, in the test on M14 melanoma and with SNB-19 CNS was above 100 µM in each case.

The values are drawn from PubChem BioAssay (NCI).
